Experimental data taken from ChEMBL document CHEMBL1201862, “PubChem BioAssay data set” (2004).
Calls of active or inactive are those of the source.

Tests used:
[1] = target: Cytochrome P450 2D6 (Homo sapiens, UniProt P10635); assay: qHTS Assay for Inhibitors and Substrates of Cytochrome P450 2D6. [Related pubchem assays: 410 ]; type: ADME; details: read-out: Potency
[2] = test system: BJ; assay: BJ-TERT fibroblast viability loss – cell-based, RAS-independent, luminescence, dose response (AID 1933); type: functional; details: Homo sapiens
[3] = DRD fibroblast viability loss – cell-based, non-viral oncogenic, luminescence, dose response (AID 1934); type: functional; details: Homo sapiens
[4] = target: T1, Streptokinase A (Streptococcus pyogenes serotype M1, UniProt P10520); assay: viability-normalized secreted streptokinase activity reduction – plasminogen activation absorbance, OD405, dose response (AID 1914); type: functional, Streptococcus pyogenes M1 GAS;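 further: secreted streptokinase activity via plasminogen activation per viability signal from cell pellet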
T1 sequence (P10520 whole entry): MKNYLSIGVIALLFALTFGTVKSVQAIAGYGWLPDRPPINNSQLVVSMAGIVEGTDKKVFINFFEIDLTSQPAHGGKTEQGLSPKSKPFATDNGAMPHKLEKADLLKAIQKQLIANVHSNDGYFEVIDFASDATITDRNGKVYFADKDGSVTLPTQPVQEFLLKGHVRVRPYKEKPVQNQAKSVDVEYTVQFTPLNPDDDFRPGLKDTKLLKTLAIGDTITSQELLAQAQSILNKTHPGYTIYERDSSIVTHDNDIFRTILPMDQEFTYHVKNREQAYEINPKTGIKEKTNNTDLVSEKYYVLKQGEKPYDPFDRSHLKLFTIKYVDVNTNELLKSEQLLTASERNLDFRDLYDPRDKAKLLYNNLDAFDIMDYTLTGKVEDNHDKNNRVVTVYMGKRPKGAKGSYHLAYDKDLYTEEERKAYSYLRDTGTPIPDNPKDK

[5] = test system: BJ; assay: cells; type: functional, cell-based; details: Homo sapiens
[6] = test system: Streptococcus sp. 'group A'; assay: Streptococcus pyogenes SK(-)GAS viability under kanamycin – luminescence, BacTiterGlo, confirmation, counter-screen for streptokinase expression inhibitor project, dose response (AID 1900); type: functional, organism-based
[7] = test system: Streptococcus; assay: GAS UMAA2166 growth inhibition – luminescence, BacTiterGlo, counter-screen for streptokinase expression inhibitor project, dose response (AID 1915); type: functional, organism-based;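 further: potency for reduction of bacterial viability or growth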
[8] = test system: BJ; assay: BJ-TERT-LT-ST fibroblast viability loss – cell-based, RAS-independent, luminescence, dose response (AID 1935); type: functional; details: Homo sapiens;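 further: BJ fibroblasts immortalized with TERT plus LT and ST oncogenes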
[9] = target: G2/mitotic-specific cyclin-B1 (Homo sapiens, UniProt P14635); assay: Counterscreen assay for inhibitors of Wee1 degradation: dose response cell-based assay to identify inhibitors of cyclin B degradation. [Related pubchem assays: 1410, 1321 ]; type: functional
[10] = target: Wee1-like protein kinase (Homo sapiens, UniProt P30291); assay: Dose Response Cell-based Assay for Inhibitors of Wee1 Degradation. [Related pubchem assays: 1410, 1321 ]; type: functional
[11] = target: Photoreceptor-specific nuclear receptor (Homo sapiens, UniProt Q9Y5X4); type: functional;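 further: potency for compounds that break the NR2E3 corepressor complex and count as activators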
[12] = target: Peroxisome proliferator-activated receptor gamma/Nuclear receptor corepressor 2 (Homo sapiens, UniProt P37231+Q9Y618); type: functional
[13] = target: Peroxisome proliferator-activated receptor gamma/Nuclear receptor coactivator 3 (Homo sapiens, UniProt P37231); assay: TR-FRET dose response biochemical High Throughput Screening assay for agonists of the steroid receptor coactivator 3 (SRC-3) recruitment by the peroxisome proliferator-activated receptor gamma (PPAR gamma): non-selective agonists. [Related pubchem assays: 1301 (Confirmation screen.), 1048 (Primary screen.)]; type: functional
[14] = target: Peroxisome proliferator-activated receptor gamma/Nuclear receptor coactivator 2 (Homo sapiens, UniProt P37231); assay: (§1) TR-FRET dose response biochemical High Throughput Screening assay for agonists of the steroid receptor coactivator 2 (SRC-2) recruitment by the peroxisome proliferator-activated receptor gamma (PPAR gamma): non-selective agonists. [Related pubchem assays: 1297, 1032 ]; type: functional
[15] = target: Peroxisome proliferator-activated receptor gamma/Nuclear receptor coactivator 1 (Homo sapiens, UniProt P37231); assay: as §1, with “1 (SRC-1)” for “2 (SRC-2)”, “assays (depositor defined):AID1300, AID1808, AID504735, AID631]” for “assays: 1297, 1032 ]”; type: protein assay
[16] = test system: INS1; assay: INS-1E survival protection against cytokine death – cell-based, luminescence, retest, dose response (AID 449756); type: functional; details: Rattus norvegicus;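 further: cell death triggered by IL-1 beta plus TNF-alpha plus IFN-gamma mixture; protective hits raise ATP signal compared with cytokine alone wells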
[17] = target: Serine/threonine-protein phosphatase PP1-alpha catalytic subunit (Homo sapiens, UniProt P62136); assay: inhibition of protein phosphatase 1 activity – biochemical, fluorescence, dose response (AID 2403);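 further: phosphatase turnover of OMFP into fluorescent 3-O-methylfluorescein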
[18] = decrease of insulin promoter-GFP reporter – imaging, high-content screening, mouse beta cells (AID 1628); type: functional; details: MIN6
[19] = Luminescent dose response cell-based high throughput screening assay for inhibitors of the Janus kinase 2 mutant JAK2V617F. [Related pubchem assays: 1446 (Primary screen.), 1521 (Confirmation assay.), 1486 (Counter screen.)]; type: functional
[20] = test system: HEK293; assay: EBV LMP1 TES2 canonical NF-kB signalling blockers – cell-based, HEK293, luciferase, cherry-pick, dose response (AID 588343); type: functional; details: Homo sapiens
[21] = target: T2, Serine/threonine-protein phosphatase (Homo sapiens, UniProt Q9BPW0); assay: Counterscreen for inhibitors of PP1: fluorescence-based biochemical high throughput dose response assay to identify inhibitors of Protein Phosphatase 5 (PP5). [Related pubchem assays: 2034 (Summary (PP5 inhibitors)), 1987 (PP5 inhibitors in singlate), 2235 (PP1 inhibitors in singlate)]
T2 sequence (Q9BPW0 whole entry): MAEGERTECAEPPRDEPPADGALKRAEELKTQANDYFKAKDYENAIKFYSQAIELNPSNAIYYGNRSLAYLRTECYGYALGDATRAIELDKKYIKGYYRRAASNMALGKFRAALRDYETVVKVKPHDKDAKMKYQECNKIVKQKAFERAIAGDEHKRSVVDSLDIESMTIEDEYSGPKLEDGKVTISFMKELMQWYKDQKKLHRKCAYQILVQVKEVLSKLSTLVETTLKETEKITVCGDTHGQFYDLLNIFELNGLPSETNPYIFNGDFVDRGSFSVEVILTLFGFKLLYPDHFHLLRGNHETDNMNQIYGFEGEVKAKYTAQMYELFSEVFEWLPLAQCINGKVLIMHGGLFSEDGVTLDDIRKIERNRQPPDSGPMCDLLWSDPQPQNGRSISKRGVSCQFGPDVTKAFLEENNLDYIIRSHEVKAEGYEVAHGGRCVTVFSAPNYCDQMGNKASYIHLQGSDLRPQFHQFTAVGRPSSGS

[22] = bead-based luminescence quenchers, dual-tagged ARNT – biochemical, AlphaScreen, cherry-pick, artefact control for ARNT-TACC3 interaction inhibitor project, dose response (AID 651705); type: functional;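 further: AlphaScreen bead proximity signal that flags compounds interfering with the detection technology; potency reflects signal decrease which marks the compound as an assay artifact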
[23] = MIN6 cell viability loss – mouse insulinoma, cytotoxicity control, dose response (AID 2122); type: functional;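 further: confirmatory high-throughput counterscreen run to flag cytotoxic compounds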
[24] = target: T3, Rac GTPase-activating protein 1 (Homo sapiens, UniProt Q9H0H5); assay: blockers of MgcRacGAP-driven Rac1 GTP hydrolysis – biochemical, ADP Hunter fluorescence, primary and confirmatory, confirmation (AID 624330); type: functional
T3 sequence (Q9H0H5 whole entry): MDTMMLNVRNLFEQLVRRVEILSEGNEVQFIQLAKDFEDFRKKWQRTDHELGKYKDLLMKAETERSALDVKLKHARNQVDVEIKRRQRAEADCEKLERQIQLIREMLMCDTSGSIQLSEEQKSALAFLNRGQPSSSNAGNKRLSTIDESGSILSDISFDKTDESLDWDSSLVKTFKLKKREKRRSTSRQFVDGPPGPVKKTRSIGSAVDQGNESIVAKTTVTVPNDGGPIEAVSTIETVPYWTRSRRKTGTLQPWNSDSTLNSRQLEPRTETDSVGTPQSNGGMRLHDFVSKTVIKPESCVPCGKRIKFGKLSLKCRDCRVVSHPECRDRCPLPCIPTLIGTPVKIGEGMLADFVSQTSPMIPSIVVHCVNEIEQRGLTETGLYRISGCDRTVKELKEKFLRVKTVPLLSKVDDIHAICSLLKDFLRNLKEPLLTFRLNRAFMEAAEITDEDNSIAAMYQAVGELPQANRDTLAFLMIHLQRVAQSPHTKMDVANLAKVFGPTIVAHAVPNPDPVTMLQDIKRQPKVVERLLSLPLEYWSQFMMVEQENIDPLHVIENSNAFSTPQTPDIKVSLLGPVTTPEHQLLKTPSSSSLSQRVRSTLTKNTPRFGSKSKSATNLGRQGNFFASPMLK

[25] = target: Neuropeptides B/W receptor type 1 (Homo sapiens, UniProt P48145); assay: Fluorescence-based dose response cell-based high throughput screening assay to identify antagonists of the G-protein coupled receptor 7 (GPR7). [Related pubchem assays: 1952 (Screening assay (GPR7 antagonists).), 1880 (Summary AID.)]; type: functional
[26] = target: Melanin-concentrating hormone receptor 1 (Homo sapiens, UniProt Q99705); assay: Fluorescence-based counterscreen for antagonists of the G-protein coupled receptor 7 (GPR7): cell-based high throughput dose response assay to identify antagonists of the melanin-concentrating hormone receptor 1 (MCHR1).; type: functional
[27] = target: T4, Dual specificity protein phosphatase 6 (Rattus norvegicus, UniProt Q64346)
T4 sequence (Q64346 whole entry): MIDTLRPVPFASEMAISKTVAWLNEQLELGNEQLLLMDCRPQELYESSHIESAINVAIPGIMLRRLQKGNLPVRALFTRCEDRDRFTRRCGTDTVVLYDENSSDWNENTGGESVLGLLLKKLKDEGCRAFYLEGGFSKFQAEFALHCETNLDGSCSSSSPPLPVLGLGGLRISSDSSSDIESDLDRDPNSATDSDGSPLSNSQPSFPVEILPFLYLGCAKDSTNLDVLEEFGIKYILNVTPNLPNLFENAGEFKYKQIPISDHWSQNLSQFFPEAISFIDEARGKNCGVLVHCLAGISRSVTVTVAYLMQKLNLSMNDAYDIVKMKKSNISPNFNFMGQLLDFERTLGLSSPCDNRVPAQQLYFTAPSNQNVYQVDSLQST

[28] = target: Glyceraldehyde-3-phosphate dehydrogenase (Homo sapiens, UniProt P04406)
[29] = target: T5, Tyrosine-protein phosphatase non-receptor type 7 (Homo sapiens, UniProt P35236); type: functional
T5 sequence (P35236 whole entry): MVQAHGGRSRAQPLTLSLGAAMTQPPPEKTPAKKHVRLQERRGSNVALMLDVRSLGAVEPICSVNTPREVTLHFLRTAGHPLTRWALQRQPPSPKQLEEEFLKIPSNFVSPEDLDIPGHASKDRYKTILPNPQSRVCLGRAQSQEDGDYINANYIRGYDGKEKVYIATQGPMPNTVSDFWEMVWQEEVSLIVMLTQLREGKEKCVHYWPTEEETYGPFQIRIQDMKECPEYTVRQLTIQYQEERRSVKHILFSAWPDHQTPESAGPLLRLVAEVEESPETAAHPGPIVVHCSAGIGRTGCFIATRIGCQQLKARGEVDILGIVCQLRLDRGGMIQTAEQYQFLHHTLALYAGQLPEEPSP

[30] = target: T4, Dual specificity protein phosphatase 6; type: functional
[31] = target: T6, Alkaline phosphatase, tissue-nonspecific isozyme (Homo sapiens, UniProt P05186)
T6 sequence (P05186 whole entry): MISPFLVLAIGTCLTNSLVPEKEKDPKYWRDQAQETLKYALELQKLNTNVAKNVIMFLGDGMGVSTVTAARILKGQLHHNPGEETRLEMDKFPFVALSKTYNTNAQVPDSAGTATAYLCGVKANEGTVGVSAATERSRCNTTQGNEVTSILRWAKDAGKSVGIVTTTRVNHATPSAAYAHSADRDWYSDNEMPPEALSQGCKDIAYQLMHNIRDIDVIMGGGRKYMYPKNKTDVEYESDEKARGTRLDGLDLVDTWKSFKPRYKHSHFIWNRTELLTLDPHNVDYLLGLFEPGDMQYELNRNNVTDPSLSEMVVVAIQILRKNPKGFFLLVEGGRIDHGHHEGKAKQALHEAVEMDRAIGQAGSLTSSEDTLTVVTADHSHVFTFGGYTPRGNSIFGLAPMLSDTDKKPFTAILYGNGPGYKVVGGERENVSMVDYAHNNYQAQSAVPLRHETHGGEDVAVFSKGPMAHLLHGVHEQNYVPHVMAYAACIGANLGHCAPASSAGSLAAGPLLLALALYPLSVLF

[32] = A cytotoxicity screen of small molecule inhibitors of the PhoP region in Salmonella typhi identified in the primary screen. [Related pubchem assays: 1850, 1864, 1985 ]; type: functional

Sequence of Photoreceptor-specific nuclear receptor (Q9Y5X4 whole entry): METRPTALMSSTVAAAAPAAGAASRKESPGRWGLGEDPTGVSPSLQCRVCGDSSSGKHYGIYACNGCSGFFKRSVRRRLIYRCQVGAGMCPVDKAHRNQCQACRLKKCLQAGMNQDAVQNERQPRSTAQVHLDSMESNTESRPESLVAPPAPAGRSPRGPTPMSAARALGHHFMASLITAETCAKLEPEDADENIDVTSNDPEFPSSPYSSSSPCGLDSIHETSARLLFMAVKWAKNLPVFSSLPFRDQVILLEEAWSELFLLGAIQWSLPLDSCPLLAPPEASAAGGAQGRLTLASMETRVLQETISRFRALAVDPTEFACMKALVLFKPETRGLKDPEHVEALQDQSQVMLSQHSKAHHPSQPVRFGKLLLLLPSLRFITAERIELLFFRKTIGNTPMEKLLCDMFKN
Sequence of Neuropeptides B/W receptor type 1 (P48145 whole entry): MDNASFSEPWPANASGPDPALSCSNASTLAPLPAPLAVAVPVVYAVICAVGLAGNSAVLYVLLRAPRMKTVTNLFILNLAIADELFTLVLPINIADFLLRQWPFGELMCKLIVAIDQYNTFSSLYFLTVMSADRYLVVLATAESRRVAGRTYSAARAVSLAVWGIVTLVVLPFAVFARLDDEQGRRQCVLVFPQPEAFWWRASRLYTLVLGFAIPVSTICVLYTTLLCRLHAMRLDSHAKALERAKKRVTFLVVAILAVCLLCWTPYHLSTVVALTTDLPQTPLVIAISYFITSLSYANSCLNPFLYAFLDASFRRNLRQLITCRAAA
Sequence of Melanin-concentrating hormone receptor 1 (Q99705 whole entry): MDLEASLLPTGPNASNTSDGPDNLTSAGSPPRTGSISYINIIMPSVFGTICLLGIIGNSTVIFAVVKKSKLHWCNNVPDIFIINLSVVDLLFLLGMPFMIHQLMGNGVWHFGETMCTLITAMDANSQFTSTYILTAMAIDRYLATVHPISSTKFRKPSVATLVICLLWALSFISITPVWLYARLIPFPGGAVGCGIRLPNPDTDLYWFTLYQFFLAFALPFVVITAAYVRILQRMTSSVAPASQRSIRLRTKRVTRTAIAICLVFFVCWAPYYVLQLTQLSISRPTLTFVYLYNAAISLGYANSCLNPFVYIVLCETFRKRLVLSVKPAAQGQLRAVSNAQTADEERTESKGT
Sequence of Serine/threonine-protein phosphatase PP1-alpha catalytic subunit (P62136 whole entry): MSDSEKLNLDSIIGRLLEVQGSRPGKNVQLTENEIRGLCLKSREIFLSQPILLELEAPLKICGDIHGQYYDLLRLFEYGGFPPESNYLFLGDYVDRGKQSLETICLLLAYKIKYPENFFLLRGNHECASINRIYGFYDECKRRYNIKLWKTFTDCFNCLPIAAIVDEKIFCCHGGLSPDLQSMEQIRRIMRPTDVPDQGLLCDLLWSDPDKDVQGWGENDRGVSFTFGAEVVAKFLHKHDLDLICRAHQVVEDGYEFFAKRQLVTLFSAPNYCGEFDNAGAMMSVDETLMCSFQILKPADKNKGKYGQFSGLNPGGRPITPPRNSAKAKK
Sequence of Peroxisome proliferator-activated receptor gamma/Nuclear receptor coactivator 1 (P37231 whole entry): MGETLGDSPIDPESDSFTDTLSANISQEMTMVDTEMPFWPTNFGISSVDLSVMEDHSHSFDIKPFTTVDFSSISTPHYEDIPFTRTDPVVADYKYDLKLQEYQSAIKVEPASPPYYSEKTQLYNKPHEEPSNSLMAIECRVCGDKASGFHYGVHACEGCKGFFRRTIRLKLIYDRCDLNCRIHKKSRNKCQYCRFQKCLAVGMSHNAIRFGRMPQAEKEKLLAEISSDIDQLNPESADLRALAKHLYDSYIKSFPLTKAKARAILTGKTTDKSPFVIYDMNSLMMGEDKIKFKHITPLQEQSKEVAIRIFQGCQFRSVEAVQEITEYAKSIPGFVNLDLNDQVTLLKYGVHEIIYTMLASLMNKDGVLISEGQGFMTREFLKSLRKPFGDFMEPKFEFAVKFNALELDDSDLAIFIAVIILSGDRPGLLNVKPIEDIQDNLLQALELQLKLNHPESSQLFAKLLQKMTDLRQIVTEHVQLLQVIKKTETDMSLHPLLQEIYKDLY
Sequence of Peroxisome proliferator-activated receptor gamma/Nuclear receptor coactivator 1 (Q15788 whole entry, further chain): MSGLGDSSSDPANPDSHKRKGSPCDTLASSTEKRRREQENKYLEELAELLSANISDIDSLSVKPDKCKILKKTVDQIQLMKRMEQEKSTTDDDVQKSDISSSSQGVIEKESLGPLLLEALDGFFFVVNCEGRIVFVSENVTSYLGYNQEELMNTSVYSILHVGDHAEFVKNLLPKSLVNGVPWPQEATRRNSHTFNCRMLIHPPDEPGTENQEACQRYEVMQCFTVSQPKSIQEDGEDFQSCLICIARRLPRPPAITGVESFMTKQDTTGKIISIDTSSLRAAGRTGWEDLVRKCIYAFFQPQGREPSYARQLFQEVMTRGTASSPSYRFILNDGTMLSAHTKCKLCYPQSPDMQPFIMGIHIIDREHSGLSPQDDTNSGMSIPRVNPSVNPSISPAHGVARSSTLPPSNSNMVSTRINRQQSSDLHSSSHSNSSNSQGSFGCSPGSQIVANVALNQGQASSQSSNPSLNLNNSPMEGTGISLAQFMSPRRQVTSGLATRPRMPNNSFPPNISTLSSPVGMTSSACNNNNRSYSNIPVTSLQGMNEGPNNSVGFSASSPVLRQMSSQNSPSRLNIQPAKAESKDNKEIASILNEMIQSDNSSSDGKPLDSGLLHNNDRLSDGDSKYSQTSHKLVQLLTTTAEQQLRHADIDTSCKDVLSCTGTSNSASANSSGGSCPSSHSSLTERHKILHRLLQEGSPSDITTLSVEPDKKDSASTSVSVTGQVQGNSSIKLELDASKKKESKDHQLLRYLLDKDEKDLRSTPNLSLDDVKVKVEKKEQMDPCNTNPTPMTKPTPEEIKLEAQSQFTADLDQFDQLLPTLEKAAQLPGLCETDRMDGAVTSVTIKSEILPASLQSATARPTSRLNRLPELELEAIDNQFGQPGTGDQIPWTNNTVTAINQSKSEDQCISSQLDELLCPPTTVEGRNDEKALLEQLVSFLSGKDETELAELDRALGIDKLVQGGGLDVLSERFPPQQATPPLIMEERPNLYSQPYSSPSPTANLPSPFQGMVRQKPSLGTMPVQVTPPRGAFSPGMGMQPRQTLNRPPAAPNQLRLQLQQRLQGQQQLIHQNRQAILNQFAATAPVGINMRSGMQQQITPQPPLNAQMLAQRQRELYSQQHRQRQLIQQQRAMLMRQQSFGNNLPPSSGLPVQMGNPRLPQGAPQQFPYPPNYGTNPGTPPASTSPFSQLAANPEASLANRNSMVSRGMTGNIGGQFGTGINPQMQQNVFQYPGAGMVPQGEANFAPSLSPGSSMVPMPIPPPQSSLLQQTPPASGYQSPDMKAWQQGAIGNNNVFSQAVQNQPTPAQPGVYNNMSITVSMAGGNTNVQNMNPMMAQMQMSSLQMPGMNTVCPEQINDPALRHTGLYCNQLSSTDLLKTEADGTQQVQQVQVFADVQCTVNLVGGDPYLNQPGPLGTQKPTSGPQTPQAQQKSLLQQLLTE
Sequence of Cytochrome P450 2D6 (P10635 whole entry): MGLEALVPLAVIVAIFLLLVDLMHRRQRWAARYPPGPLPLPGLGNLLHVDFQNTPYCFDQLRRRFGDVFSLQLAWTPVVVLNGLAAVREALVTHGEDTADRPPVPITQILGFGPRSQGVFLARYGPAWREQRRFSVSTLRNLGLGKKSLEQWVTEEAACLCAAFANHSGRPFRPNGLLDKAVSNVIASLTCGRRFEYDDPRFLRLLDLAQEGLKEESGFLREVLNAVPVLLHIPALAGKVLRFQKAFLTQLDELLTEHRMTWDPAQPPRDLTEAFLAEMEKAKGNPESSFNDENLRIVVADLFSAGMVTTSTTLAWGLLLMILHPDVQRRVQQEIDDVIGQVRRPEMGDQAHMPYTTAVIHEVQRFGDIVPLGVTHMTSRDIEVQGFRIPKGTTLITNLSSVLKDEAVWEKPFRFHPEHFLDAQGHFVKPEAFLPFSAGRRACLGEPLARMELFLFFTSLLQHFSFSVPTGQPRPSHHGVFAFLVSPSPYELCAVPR
Sequence of G2/mitotic-specific cyclin-B1 (P14635 whole entry): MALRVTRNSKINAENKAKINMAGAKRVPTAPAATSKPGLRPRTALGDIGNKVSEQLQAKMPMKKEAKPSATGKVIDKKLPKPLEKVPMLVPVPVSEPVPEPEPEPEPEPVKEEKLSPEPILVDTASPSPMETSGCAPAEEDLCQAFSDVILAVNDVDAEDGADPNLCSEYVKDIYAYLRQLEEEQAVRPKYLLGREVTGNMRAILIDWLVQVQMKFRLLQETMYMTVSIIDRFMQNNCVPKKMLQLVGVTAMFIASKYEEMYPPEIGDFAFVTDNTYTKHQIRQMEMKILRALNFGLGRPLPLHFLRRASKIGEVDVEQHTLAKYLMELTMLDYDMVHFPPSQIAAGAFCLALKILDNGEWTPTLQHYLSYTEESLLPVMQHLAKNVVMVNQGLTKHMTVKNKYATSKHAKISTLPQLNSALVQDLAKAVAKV
Sequence of Wee1-like protein kinase (P30291 whole entry): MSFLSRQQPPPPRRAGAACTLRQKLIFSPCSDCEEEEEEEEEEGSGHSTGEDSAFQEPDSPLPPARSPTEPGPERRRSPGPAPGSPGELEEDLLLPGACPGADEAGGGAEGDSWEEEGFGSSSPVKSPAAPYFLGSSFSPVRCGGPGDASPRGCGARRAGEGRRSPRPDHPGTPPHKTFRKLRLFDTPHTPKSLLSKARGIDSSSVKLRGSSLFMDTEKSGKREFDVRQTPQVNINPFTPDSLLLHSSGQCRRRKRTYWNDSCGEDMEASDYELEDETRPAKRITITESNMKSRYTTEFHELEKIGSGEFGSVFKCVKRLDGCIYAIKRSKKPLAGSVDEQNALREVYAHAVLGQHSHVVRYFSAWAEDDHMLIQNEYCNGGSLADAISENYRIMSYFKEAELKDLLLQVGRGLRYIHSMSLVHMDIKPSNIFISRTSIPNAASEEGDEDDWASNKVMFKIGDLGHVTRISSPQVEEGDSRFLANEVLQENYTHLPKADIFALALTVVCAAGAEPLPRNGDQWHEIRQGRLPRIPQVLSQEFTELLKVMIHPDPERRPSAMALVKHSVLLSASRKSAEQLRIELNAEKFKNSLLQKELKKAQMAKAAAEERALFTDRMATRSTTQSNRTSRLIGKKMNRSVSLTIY

COc1cccc2oc(-c3ccc(O)cc3)cc(=O)c12
AC50 [1]: 15.8 µM (inconclusive)

O=C(Nc1ccc(Cl)c(Cl)c1)Nc1nccs1
EC50 [2]: 3.87 µM (active)
EC50 [3]: 3.33 µM (active)
EC50 [4]: > 150 µM (not active)
EC50 [5]: 46.2 µM (active)
EC50 [6]: 8.23 µM (active)
EC50 [7]: 15.4 µM (active)
EC50 [8]: 3.25 µM (inconclusive)
EC50 [9]: > 49.7 µM (not active)
EC50 [10]: > 49.7 µM (not active)

CCN(CC)CCCN1C(=O)C(O)=C(C(=O)c2cc3ccccc3o2)C1c1ccccn1 (stereo not drawn)
IC50 [11]: > 39.8 µM (not active)
IC50 [12]: 4.13 µM (active)
EC50 [13]: > 79.4 µM (not active)
EC50 [14]: 35.7 µM (not active)
EC50 [15]: > 79.4 µM (inactive)

c1ccc(CCNc2nc(-c3ccccn3)nc3ccccc23)cc1
AC50 [16]: 1.63 µM (active)
IC50 [17]: 6.27 µM (active)
EC50 [2]: 3.18 µM (active)
EC50 [3]: 15.9 µM (inconclusive)
IC50 [18]: 1.96 µM (active)
EC50 [5]: 28.9 µM (active)
EC50 [6]: 0.916 µM (active)
IC50 [19]: 1.77 µM (active)
AC50 [20]: 1.24 µM (active)
IC50 [21]: 49.3 µM (not active)
EC50 [7]: 2.33 µM (active)
AC50 [22]: 125 µM (active)
IC50 [23]: 1.21 µM (active)
EC50 [8]: 51.1 µM (inconclusive)

CCOc1ccccc1NC(=O)C(NCC1(N2CCCCC2)CCCCC1)c1ccccc1 (stereo not drawn)
IC50 [24]: 139 µM (active)
IC50 [25]: > 14.6 µM (not active)
IC50 [26]: > 14.6 µM (not active)

Cc1cc(NC(=O)c2cccs2)no1
IC50 [27]: > 100 µM (inactive)
IC50 [28]: 50.1 µM (active)
IC50 [29]: > 100 µM (not active)
IC50 [30]: > 100 µM (inactive)

Cc1ccn2cc(C(=O)Nc3nnc(C)s3)nc2c1
EC50 [31]: > 100 µM (not active)
EC50 [32]: > 50 µM (active)
